± gives the expanded uncertainty stated by the source.
Details: 303.15 K, Liquid, Vibrating tube method

FC(C(F)(F)F)C(F)(F)F [1,1,1,2,3,3,3-heptafluoropropane]
mass density (1945 kPa): 1378.6 ± 1.5 kg/m3
mass density (1968 kPa): 1378.8 ± 1.5 kg/m3
mass density (1989 kPa): 1379 ± 1.5 kg/m3
mass density (2014 kPa): 1379.2 ± 1.5 kg/m3
mass density (2041 kPa): 1379.4 ± 1.5 kg/m3
mass density (2063 kPa): 1379.7 ± 1.5 kg/m3
mass density (2084 kPa): 1379.7 ± 1.5 kg/m3
mass density (2105 kPa): 1379.8 ± 1.5 kg/m3
mass density (2131 kPa): 1380.1 ± 1.5 kg/m3
mass density (2283 kPa): 1381.5 ± 1.5 kg/m3
mass density (2308 kPa): 1381.6 ± 1.5 kg/m3
mass density (2332 kPa): 1381.8 ± 1.5 kg/m3
mass density (2353 kPa): 1381.9 ± 1.5 kg/m3
mass density (2378 kPa): 1382.2 ± 1.5 kg/m3
mass density (2402 kPa): 1382.4 ± 1.5 kg/m3
mass density (2418 kPa): 1382.4 ± 1.5 kg/m3
mass density (2439 kPa): 1382.6 ± 1.5 kg/m3
mass density (2461 kPa): 1382.7 ± 1.5 kg/m3
mass density (2482 kPa): 1383 ± 1.5 kg/m3
mass density (2510 kPa): 1383.4 ± 1.5 kg/m3
mass density (2528 kPa): 1383.3 ± 1.5 kg/m3
mass density (2552 kPa): 1383.4 ± 1.5 kg/m3
mass density (2569 kPa): 1383.6 ± 1.5 kg/m3
mass density (2591 kPa): 1383.8 ± 1.5 kg/m3
mass density (2607 kPa): 1384 ± 1.5 kg/m3
mass density (2632 kPa): 1384.1 ± 1.5 kg/m3
mass density (2651 kPa): 1384.2 ± 1.5 kg/m3
mass density (2673 kPa): 1384.4 ± 1.5 kg/m3
mass density (2695 kPa): 1384.5 ± 1.5 kg/m3
mass density (2718 kPa): 1384.7 ± 1.5 kg/m3
mass density (2737 kPa): 1384.9 ± 1.5 kg/m3
mass density (2762 kPa): 1385 ± 1.5 kg/m3
mass density (3000 kPa): 1387 ± 1.5 kg/m3
mass density (3022 kPa): 1387.1 ± 1.5 kg/m3
mass density (3068 kPa): 1387.5 ± 1.5 kg/m3
mass density (3088 kPa): 1387.7 ± 1.5 kg/m3
mass density (3114 kPa): 1387.8 ± 1.5 kg/m3
mass density (3136 kPa): 1387.9 ± 1.5 kg/m3
mass density (3203 kPa): 1388.6 ± 1.5 kg/m3
mass density (3222 kPa): 1388.8 ± 1.5 kg/m3
mass density (3271 kPa): 1389 ± 1.5 kg/m3
mass density (3293 kPa): 1389.2 ± 1.5 kg/m3
mass density (3319 kPa): 1389.4 ± 1.5 kg/m3
mass density (3357 kPa): 1389.6 ± 1.5 kg/m3
mass density (3383 kPa): 1389.8 ± 1.5 kg/m3
mass density (3402 kPa): 1390.2 ± 1.5 kg/m3
mass density (3428 kPa): 1390.3 ± 1.5 kg/m3
mass density (3448 kPa): 1390.3 ± 1.5 kg/m3
mass density (3471 kPa): 1390.4 ± 1.5 kg/m3
mass density (3498 kPa): 1390.7 ± 1.5 kg/m3
mass density (3521 kPa): 1390.8 ± 1.5 kg/m3
mass density (3541 kPa): 1391.2 ± 1.5 kg/m3
mass density (3568 kPa): 1391.4 ± 1.5 kg/m3
mass density (3587 kPa): 1391.3 ± 1.5 kg/m3
mass density (3614 kPa): 1391.6 ± 1.5 kg/m3
mass density (3637 kPa): 1391.7 ± 1.5 kg/m3
mass density (3667 kPa): 1391.9 ± 1.5 kg/m3
mass density (3690 kPa): 1392.1 ± 1.5 kg/m3
mass density (3714 kPa): 1392.2 ± 1.5 kg/m3
mass density (3735 kPa): 1392.5 ± 1.5 kg/m3
mass density (3765 kPa): 1392.7 ± 1.5 kg/m3
mass density (3789 kPa): 1393 ± 1.5 kg/m3
mass density (3820 kPa): 1393 ± 1.5 kg/m3
mass density (3844 kPa): 1393.3 ± 1.5 kg/m3
mass density (3875 kPa): 1393.5 ± 1.5 kg/m3
mass density (3902 kPa): 1393.7 ± 1.5 kg/m3
mass density (3919 kPa): 1393.8 ± 1.5 kg/m3
mass density (3940 kPa): 1394 ± 1.5 kg/m3
mass density (3964 kPa): 1394.2 ± 1.5 kg/m3
mass density (3991 kPa): 1394.5 ± 1.5 kg/m3
mass density (4022 kPa): 1394.6 ± 1.5 kg/m3
mass density (4050 kPa): 1394.7 ± 1.5 kg/m3
mass density (4072 kPa): 1395 ± 1.5 kg/m3
mass density (4099 kPa): 1395.1 ± 1.5 kg/m3
mass density (4123 kPa): 1395.3 ± 1.5 kg/m3
mass density (4147 kPa): 1395.5 ± 1.5 kg/m3
mass density (4168 kPa): 1395.6 ± 1.5 kg/m3
mass density (4189 kPa): 1395.8 ± 1.5 kg/m3
mass density (4217 kPa): 1396 ± 1.5 kg/m3
mass density (4249 kPa): 1396.3 ± 1.5 kg/m3
mass density (4273 kPa): 1396.5 ± 1.5 kg/m3
mass density (4290 kPa): 1396.4 ± 1.5 kg/m3
mass density (4416 kPa): 1397.5 ± 1.5 kg/m3
mass density (4444 kPa): 1397.6 ± 1.5 kg/m3
mass density (4466 kPa): 1397.8 ± 1.5 kg/m3
mass density (4497 kPa): 1397.9 ± 1.5 kg/m3
mass density (4524 kPa): 1398 ± 1.5 kg/m3
mass density (4552 kPa): 1398.4 ± 1.5 kg/m3
mass density (4582 kPa): 1398.6 ± 1.5 kg/m3
mass density (4611 kPa): 1398.9 ± 1.5 kg/m3
mass density (4633 kPa): 1399.1 ± 1.5 kg/m3
mass density (4659 kPa): 1399.4 ± 1.5 kg/m3
mass density (4684 kPa): 1399.2 ± 1.5 kg/m3
mass density (4710 kPa): 1399.5 ± 1.5 kg/m3
mass density (4735 kPa): 1399.6 ± 1.5 kg/m3
mass density (4765 kPa): 1399.9 ± 1.5 kg/m3
mass density (4788 kPa): 1400 ± 1.5 kg/m3
mass density (4811 kPa): 1400.2 ± 1.5 kg/m3
mass density (4875 kPa): 1400.6 ± 1.5 kg/m3
mass density (4904 kPa): 1400.9 ± 1.5 kg/m3
mass density (4933 kPa): 1401.1 ± 1.5 kg/m3
mass density (4958 kPa): 1401.2 ± 1.5 kg/m3
mass density (4984 kPa): 1401.4 ± 1.5 kg/m3
mass density (5013 kPa): 1401.5 ± 1.5 kg/m3
mass density (5035 kPa): 1401.8 ± 1.5 kg/m3
mass density (5060 kPa): 1401.7 ± 1.5 kg/m3
mass density (5082 kPa): 1402.2 ± 1.5 kg/m3
mass density (5116 kPa): 1402.4 ± 1.5 kg/m3
mass density (5146 kPa): 1402.4 ± 1.5 kg/m3
mass density (5172 kPa): 1402.6 ± 1.5 kg/m3
mass density (5194 kPa): 1402.8 ± 1.5 kg/m3
mass density (5221 kPa): 1403 ± 1.5 kg/m3
mass density (5239 kPa): 1403 ± 1.5 kg/m3
mass density (5261 kPa): 1403.2 ± 1.5 kg/m3
mass density (5286 kPa): 1403.5 ± 1.5 kg/m3
mass density (5308 kPa): 1403.6 ± 1.5 kg/m3
mass density (5335 kPa): 1403.7 ± 1.5 kg/m3
mass density (5356 kPa): 1403.9 ± 1.5 kg/m3
mass density (5379 kPa): 1404 ± 1.5 kg/m3
mass density (5405 kPa): 1404.1 ± 1.5 kg/m3
mass density (5427 kPa): 1404.4 ± 1.5 kg/m3
mass density (5457 kPa): 1404.7 ± 1.5 kg/m3
mass density (5479 kPa): 1404.8 ± 1.5 kg/m3
mass density (5509 kPa): 1405 ± 1.5 kg/m3
mass density (5546 kPa): 1405.2 ± 1.5 kg/m3
mass density (5568 kPa): 1405.3 ± 1.5 kg/m3
mass density (5609 kPa): 1405.6 ± 1.5 kg/m3
mass density (5635 kPa): 1405.8 ± 1.5 kg/m3
mass density (5654 kPa): 1405.9 ± 1.5 kg/m3
mass density (5688 kPa): 1406.2 ± 1.5 kg/m3
mass density (5715 kPa): 1406.3 ± 1.5 kg/m3
mass density (5738 kPa): 1406.4 ± 1.5 kg/m3
mass density (5768 kPa): 1406.6 ± 1.5 kg/m3
mass density (5795 kPa): 1406.8 ± 1.5 kg/m3
mass density (5829 kPa): 1407.1 ± 1.5 kg/m3
mass density (5856 kPa): 1407.3 ± 1.5 kg/m3
mass density (5879 kPa): 1407.3 ± 1.5 kg/m3
mass density (5906 kPa): 1407.7 ± 1.5 kg/m3
mass density (5934 kPa): 1407.9 ± 1.5 kg/m3
mass density (5957 kPa): 1408 ± 1.5 kg/m3
mass density (5980 kPa): 1408.2 ± 1.5 kg/m3
mass density (6003 kPa): 1408.2 ± 1.5 kg/m3
mass density (6033 kPa): 1408.4 ± 1.5 kg/m3
mass density (6056 kPa): 1408.6 ± 1.5 kg/m3
mass density (6080 kPa): 1408.8 ± 1.5 kg/m3
mass density (6108 kPa): 1408.9 ± 1.5 kg/m3
mass density (6135 kPa): 1409 ± 1.5 kg/m3
mass density (6167 kPa): 1409.2 ± 1.5 kg/m3
mass density (6186 kPa): 1409.4 ± 1.5 kg/m3
mass density (6217 kPa): 1409.6 ± 1.5 kg/m3
mass density (6240 kPa): 1409.7 ± 1.5 kg/m3
mass density (6272 kPa): 1409.9 ± 1.5 kg/m3
mass density (6300 kPa): 1410.1 ± 1.5 kg/m3
mass density (6332 kPa): 1410.3 ± 1.5 kg/m3
mass density (6356 kPa): 1410.5 ± 1.5 kg/m3
mass density (6382 kPa): 1410.7 ± 1.5 kg/m3
mass density (6413 kPa): 1410.8 ± 1.5 kg/m3
mass density (6441 kPa): 1411.1 ± 1.5 kg/m3
mass density (6469 kPa): 1411.1 ± 1.5 kg/m3
mass density (6493 kPa): 1411.3 ± 1.5 kg/m3
mass density (6529 kPa): 1411.6 ± 1.5 kg/m3
mass density (6556 kPa): 1411.7 ± 1.5 kg/m3
mass density (6581 kPa): 1411.9 ± 1.5 kg/m3
mass density (6617 kPa): 1412.2 ± 1.5 kg/m3
mass density (6647 kPa): 1412.4 ± 1.5 kg/m3
mass density (6675 kPa): 1412.6 ± 1.5 kg/m3
mass density (6699 kPa): 1412.7 ± 1.5 kg/m3
mass density (6720 kPa): 1412.9 ± 1.5 kg/m3
mass density (6744 kPa): 1413.1 ± 1.5 kg/m3
mass density (6772 kPa): 1413.3 ± 1.5 kg/m3
mass density (6796 kPa): 1413.4 ± 1.5 kg/m3
mass density (6820 kPa): 1413.5 ± 1.5 kg/m3
mass density (6845 kPa): 1413.6 ± 1.5 kg/m3
mass density (6881 kPa): 1414 ± 1.5 kg/m3
mass density (6909 kPa): 1414.1 ± 1.5 kg/m3
mass density (6937 kPa): 1414.3 ± 1.5 kg/m3
mass density (6974 kPa): 1414.4 ± 1.5 kg/m3
mass density (7006 kPa): 1414.7 ± 1.5 kg/m3
mass density (7030 kPa): 1414.8 ± 1.5 kg/m3
mass density (7056 kPa): 1415 ± 1.5 kg/m3
mass density (7077 kPa): 1415.1 ± 1.5 kg/m3
mass density (7110 kPa): 1415.2 ± 1.5 kg/m3
mass density (7138 kPa): 1415.5 ± 1.5 kg/m3
mass density (7171 kPa): 1415.7 ± 1.5 kg/m3
mass density (7192 kPa): 1415.8 ± 1.5 kg/m3
mass density (7216 kPa): 1416 ± 1.5 kg/m3
mass density (7441 kPa): 1417.3 ± 1.5 kg/m3
mass density (7474 kPa): 1417.5 ± 1.5 kg/m3
mass density (7507 kPa): 1417.7 ± 1.5 kg/m3
mass density (7536 kPa): 1417.9 ± 1.5 kg/m3
mass density (7570 kPa): 1418.2 ± 1.5 kg/m3
mass density (7599 kPa): 1418.3 ± 1.5 kg/m3
mass density (7628 kPa): 1418.5 ± 1.5 kg/m3
mass density (7669 kPa): 1418.7 ± 1.5 kg/m3
mass density (7702 kPa): 1418.8 ± 1.5 kg/m3
mass density (7727 kPa): 1419 ± 1.5 kg/m3
mass density (7762 kPa): 1419.2 ± 1.5 kg/m3
mass density (7795 kPa): 1419.4 ± 1.5 kg/m3
mass density (7821 kPa): 1419.5 ± 1.5 kg/m3
mass density (7850 kPa): 1419.8 ± 1.5 kg/m3
mass density (7879 kPa): 1420 ± 1.5 kg/m3
mass density (7912 kPa): 1420.3 ± 1.5 kg/m3
mass density (7941 kPa): 1420.4 ± 1.5 kg/m3
mass density (7970 kPa): 1420.6 ± 1.5 kg/m3
mass density (8008 kPa): 1420.7 ± 1.5 kg/m3
mass density (8033 kPa): 1421 ± 1.5 kg/m3
